Calls of active or inactive are those of the source. The rule behind the calls is not given here.
Legend:
[1] = molecular target: T1, Bifunctional epoxide hydrolase 2 (Mus musculus, UniProt P34914); test: Inhibition of mouse recombinant sEH using fluorogenic substrate
T1 sequence (P34914 whole entry): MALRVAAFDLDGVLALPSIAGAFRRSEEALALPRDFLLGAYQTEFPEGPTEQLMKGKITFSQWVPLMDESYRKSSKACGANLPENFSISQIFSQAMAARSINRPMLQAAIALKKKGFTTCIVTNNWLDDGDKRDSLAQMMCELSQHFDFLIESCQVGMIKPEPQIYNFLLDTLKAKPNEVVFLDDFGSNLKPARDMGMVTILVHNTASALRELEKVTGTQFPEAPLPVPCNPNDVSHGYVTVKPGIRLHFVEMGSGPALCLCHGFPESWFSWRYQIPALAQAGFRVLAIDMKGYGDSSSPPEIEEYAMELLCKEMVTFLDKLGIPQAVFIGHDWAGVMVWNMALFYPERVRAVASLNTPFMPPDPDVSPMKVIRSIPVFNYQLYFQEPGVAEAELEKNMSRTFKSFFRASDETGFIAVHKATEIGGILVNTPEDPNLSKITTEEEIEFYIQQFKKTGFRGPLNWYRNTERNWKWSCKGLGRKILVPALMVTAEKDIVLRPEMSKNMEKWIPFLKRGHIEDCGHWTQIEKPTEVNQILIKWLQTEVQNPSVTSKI

HepG2 = test: Cytotoxicity against human HepG2 cells assessed as cell viability at 1 uM incubated for 24 hrs by MTT assay; conditions: HepG2, 24 h, read-out: Activity
[2] = Metabolic stability in mouse liver microsome assessed as half life incubated for 5 to 45 mins in presence of NADPH by UPLC-MS/MS analysis; format: ADME; conditions: liver microsomes, time 5-45 min
[3] = Chemical stability of compound in cell culture medium assessed as half life measured for 24 hrs by LC-MS analysis; format: physicochemical
[4] = molecular target: T2, Eukaryotic translation initiation factor 2-alpha kinase 3 (Homo sapiens) (UniProt Q9NZJ5); test: Inhibition of PERK phosphorylation in HEK293T cells at 100 nM pretreated with compound for 12 hrs followed by thapsigargin addition and measured after 24 hrs by immunoblotting analysis; format: cell-based; conditions: time 36.0 hrs
T2 sequence (whole entry): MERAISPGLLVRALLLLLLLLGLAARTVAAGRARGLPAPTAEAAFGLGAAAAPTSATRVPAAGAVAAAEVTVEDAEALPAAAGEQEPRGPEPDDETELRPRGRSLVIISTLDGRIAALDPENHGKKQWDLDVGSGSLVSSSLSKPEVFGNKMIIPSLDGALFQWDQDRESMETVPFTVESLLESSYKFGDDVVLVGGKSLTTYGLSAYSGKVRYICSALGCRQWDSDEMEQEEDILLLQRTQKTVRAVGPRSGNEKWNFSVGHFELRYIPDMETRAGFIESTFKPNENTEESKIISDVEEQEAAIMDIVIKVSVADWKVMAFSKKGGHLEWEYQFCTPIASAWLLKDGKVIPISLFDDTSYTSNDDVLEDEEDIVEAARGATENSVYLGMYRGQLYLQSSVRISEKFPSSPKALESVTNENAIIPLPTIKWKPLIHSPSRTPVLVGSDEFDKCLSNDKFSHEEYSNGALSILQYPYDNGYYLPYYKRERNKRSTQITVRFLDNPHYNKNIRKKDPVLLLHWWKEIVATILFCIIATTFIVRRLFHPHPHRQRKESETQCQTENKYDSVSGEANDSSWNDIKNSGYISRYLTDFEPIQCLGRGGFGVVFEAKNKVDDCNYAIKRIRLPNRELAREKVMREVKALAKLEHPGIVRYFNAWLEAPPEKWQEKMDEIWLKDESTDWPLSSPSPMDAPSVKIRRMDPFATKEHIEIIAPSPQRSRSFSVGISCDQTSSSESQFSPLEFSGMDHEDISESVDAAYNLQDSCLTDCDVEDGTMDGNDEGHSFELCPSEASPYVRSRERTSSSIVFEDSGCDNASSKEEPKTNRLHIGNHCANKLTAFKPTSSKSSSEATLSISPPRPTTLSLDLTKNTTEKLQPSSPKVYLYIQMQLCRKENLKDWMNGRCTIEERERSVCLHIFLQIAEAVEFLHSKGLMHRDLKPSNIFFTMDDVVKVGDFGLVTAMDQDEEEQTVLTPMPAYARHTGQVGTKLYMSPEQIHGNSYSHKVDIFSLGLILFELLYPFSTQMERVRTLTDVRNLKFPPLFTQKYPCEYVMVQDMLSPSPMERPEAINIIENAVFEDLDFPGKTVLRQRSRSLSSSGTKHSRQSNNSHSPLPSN

[5] = Chemical stability of compound in cell culture medium assessed as degradation measured after 24 hrs by LC-MS analysis; format: physicochemical; conditions: read-out: Drug degradation
[6] = molecular target: Eukaryotic translation initiation factor 2 subunit 1 (Homo sapiens) (UniProt P05198); test: Inhibition of eIF2alpha phosphorylation in HEK293T cells at 100 nM pretreated with compound for 12 hrs followed by thapsigargin addition and measured after 24 hrs by immunoblotting analysis; format: cell-based; conditions: time 36.0 hrs
HEK293T [7] = test: Inhibition of IRE1alpha phosphorylation in HEK293T cells at 100 nM pretreated with compound for 12 hrs followed by thapsigargin addition and measured after 24 hrs by immunoblotting analysis; format: cell-based; conditions: Homo sapiens, time 36.0 hrs
[8] = Metabolic stability in mouse liver microsome assessed as intrinsic clearance incubated for 5 to 45 mins in presence of NADPH by UPLC-MS/MS analysis; format: ADME; conditions: liver microsomes, time 5-45 min, read-out: CLH
[9] = Metabolic stability in mouse liver microsome assessed as parent compound remaining incubated for 5 to 45 mins in absence of NADPH by UPLC-MS/MS analysis; format: ADME; conditions: microsomes, time 5-45 min
[10] = molecular target: Protein cereblon/Bifunctional epoxide hydrolase 2 (Homo sapiens, UniProt P34913+Q96SW2); test: PROTAC activity at sEH/CRBN in human HepG2 cells assessed as induction of sEH degradation measured for 24 hrs by immunoblot analysis; format: cell-based
[11] = Half life in male CD-1 mouse at 10 mg/kg, ip measured up to 24 hrs by LC-MS/MS analysis; format: ADME, organism-based; conditions: in vivo
[12] = Tmax in male CD-1 mouse at 10 mg/kg, ip measured up to 24 hrs by LC-MS/MS analysis; format: ADME, organism-based; conditions: in vivo
[13] = AUC (0 to infinity) in male CD-1 mouse at 10 mg/kg, ip measured up to 24 hrs by LC-MS/MS analysis; format: ADME, organism-based; conditions: in vivo
[14] = Cmax in male CD-1 mouse at 10 mg/kg, ip measured up to 24 hrs by LC-MS/MS analysis; format: ADME, organism-based; conditions: in vivo
[15] = MRT (0 to infinity) in male CD-1 mouse at 10 mg/kg, ip measured up to 24 hrs by LC-MS/MS analysis; format: ADME, organism-based; conditions: in vivo
HEK293T [16] = test: Inhibition of IRE1alpha phosphorylation in HEK293T cells at 100 to 1000 nM pretreated with compound for 12 hrs followed by thapsigargin addition and measured after 24 hrs by immunoblotting analysis; format: cell-based; conditions: Homo sapiens, dose 100-1000 nM, time 36.0 hrs
[17] = molecular target: Eukaryotic translation initiation factor 2 subunit 1 (Homo sapiens) (UniProt P05198); test: Inhibition of eIF2alpha phosphorylation in HEK293T cells at 100 to 1000 nM pretreated with compound for 12 hrs followed by thapsigargin addition and measured after 24 hrs by immunoblotting analysis; format: cell-based; conditions: dose 100-1000 nM, time 36.0 hrs
HEK-293T [18] = test: Induction of apoptosis in HEK293T cells assessed as chromatin condensation by measuring improvement in cell survival pretreated with compound for 12 hrs followed by thapsigargin addition and measured after 24 hrs by Hoechst33258 staining based analysis; format: functional; conditions: Homo sapiens, time 36.0 hrs
[19] = molecular target: T2, Eukaryotic translation initiation factor 2-alpha kinase 3 (Homo sapiens); test: Inhibition of PERK phosphorylation in HEK293T cells at 100 to 1000 nM pretreated with compound for 12 hrs followed by thapsigargin addition and measured after 24 hrs by immunoblotting analysis; format: cell-based; conditions: dose 100-1000 nM, time 36.0 hrs
[20] = molecular target: T3, Protein cereblon/Bifunctional epoxide hydrolase 2 (Mus musculus) (UniProt P34914+Q8C7D2); test: In-vivo PROTAC activity at sEH/CRBN in Male C57BL/6J mouse assessed as reduction in sEH level in BAT at 12 mg/kg, ip measured after 24 hrs by immunoblotting analysis; format: functional, organism-based
[21] = molecular target: T3, Protein cereblon/Bifunctional epoxide hydrolase 2 (Mus musculus); test: In-vivo PROTAC activity at sEH/CRBN in Male C57BL/6J mouse assessed as reduction in sEH level in liver at 12 mg/kg, ip measured after 24 hrs by immunoblotting analysis; format: functional, organism-based
HEK-293T [22] = test: Induction of apoptosis in HEK293T cells assessed as reduction in thapsigargin-induced cell death pretreated with compound for 12 hrs followed by thapsigargin addition and measured after 24 hrs by propidium iodide staining based analysis; format: functional; conditions: Homo sapiens, time 36.0 hrs

Eukaryotic translation initiation factor 2 subunit 1 (Homo sapiens), sequence (P05198 whole entry): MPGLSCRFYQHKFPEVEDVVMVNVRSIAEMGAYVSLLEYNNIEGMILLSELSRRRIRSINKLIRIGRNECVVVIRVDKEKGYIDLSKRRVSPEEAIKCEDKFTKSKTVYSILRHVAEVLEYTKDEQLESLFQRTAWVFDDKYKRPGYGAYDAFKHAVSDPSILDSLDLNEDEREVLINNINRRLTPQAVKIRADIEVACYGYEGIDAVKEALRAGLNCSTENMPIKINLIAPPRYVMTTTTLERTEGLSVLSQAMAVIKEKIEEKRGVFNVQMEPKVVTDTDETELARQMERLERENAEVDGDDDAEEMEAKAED
T3 sequence (Q8C7D2 whole entry, looked up, one chain of several): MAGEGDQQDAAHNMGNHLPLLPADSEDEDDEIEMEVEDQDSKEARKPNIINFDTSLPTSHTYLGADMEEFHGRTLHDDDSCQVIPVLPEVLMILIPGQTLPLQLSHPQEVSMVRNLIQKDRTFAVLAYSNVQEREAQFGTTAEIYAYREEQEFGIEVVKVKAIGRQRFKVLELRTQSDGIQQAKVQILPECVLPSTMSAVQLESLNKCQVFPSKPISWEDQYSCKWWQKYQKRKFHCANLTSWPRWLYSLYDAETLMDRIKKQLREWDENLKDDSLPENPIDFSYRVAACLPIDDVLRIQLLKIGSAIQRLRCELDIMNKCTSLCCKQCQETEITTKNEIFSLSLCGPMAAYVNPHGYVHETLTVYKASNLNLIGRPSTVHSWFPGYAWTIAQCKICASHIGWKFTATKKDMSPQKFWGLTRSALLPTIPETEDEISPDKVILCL
Protein cereblon/Bifunctional epoxide hydrolase 2, sequence (P34913 whole entry): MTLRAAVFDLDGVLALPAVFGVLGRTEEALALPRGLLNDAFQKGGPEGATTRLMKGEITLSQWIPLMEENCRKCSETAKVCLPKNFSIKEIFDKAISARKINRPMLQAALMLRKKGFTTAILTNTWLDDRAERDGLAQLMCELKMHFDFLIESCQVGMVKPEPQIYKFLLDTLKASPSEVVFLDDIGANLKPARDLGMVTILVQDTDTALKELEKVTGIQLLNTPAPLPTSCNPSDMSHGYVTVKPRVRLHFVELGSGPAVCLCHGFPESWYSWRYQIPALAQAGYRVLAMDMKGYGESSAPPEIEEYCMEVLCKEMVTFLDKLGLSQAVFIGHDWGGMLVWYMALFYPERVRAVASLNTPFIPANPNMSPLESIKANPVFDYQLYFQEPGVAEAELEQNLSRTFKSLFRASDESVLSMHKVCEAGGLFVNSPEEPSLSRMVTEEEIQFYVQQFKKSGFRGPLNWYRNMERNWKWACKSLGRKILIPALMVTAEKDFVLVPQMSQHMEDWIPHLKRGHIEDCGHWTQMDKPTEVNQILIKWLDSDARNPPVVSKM
Protein cereblon/Bifunctional epoxide hydrolase 2, sequence (Q96SW2 whole entry): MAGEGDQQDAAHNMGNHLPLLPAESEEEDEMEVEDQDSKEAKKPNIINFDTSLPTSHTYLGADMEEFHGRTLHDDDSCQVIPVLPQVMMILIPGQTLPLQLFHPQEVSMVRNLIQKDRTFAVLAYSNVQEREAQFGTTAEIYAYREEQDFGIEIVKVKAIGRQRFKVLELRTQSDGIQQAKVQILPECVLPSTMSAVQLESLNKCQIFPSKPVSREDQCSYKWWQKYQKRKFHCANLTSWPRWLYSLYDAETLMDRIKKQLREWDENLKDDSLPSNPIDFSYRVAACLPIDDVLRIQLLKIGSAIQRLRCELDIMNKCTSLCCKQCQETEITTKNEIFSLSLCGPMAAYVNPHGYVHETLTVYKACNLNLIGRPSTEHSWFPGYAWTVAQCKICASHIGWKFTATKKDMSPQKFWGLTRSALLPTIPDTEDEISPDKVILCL

O=C1CCC(N2C(=O)c3cc(F)c(N4CCN(C(=O)CCCCCCCCNC(=O)c5ccc(O[C@H]6CC[C@H](NC(=O)Nc7ccc(OC(F)(F)F)cc7)CC6)cc5)CC4)cc3C2=O)C(=O)N1 (stereo partly drawn)
IC50 [1]: 2.2 nM | viability at 1 µM (HepG2): -6%

O=C(COc1cccc2c1C(=O)N(C1CCC(=O)NC1=O)C2=O)NCCOCCOCCOCCOCCNC(=O)c1ccc(O[C@H]2CC[C@H](NC(=O)Nc3ccc(OC(F)(F)F)cc3)CC2)cc1 (stereo partly drawn)
half-life [2]: 0.00983 h | half-life [3]: 1.1 h | inhibition [4]: inactive | degraded at 24 h [5]: ~100% | inhibition [6]: inactive | inhibition (HEK293T [7]): inactive | CLint scaled [8]: 9200 mL/min/kg | Stability [9]: 90%

O=C1CCC(N2C(=O)c3cccc(N4CCN(CC5CCN(C(=O)CCCCCCCCNC(=O)c6ccc(O[C@H]7CC[C@H](NC(=O)Nc8ccc(OC(F)(F)F)cc8)CC7)cc6)CC5)CC4)c3C2=O)C(=O)N1 (stereo partly drawn)
IC50 [1]: 1.8 nM | viability at 1 µM (HepG2): 24%

O=C1CCC(N2C(=O)c3cc(F)c(N4CCN(CC5CCN(C(=O)CCCCCCCCNC(=O)c6ccc(O[C@H]7CC[C@H](NC(=O)Nc8ccc(OC(F)(F)F)cc8)CC7)cc6)CC5)CC4)cc3C2=O)C(=O)N1 (stereo partly drawn)
IC50 [1]: 20 nM

O=C1CCC(N2C(=O)c3ccc(N4CCN(C(=O)CCCCCCCCNC(=O)c5ccc(O[C@H]6CC[C@H](NC(=O)Nc7ccc(OC(F)(F)F)cc7)CC6)cc5)CC4)cc3C2=O)C(=O)N1 (stereo partly drawn)
half-life [2]: 0.517 h | half-life [3]: > 24 h | IC50 [1]: 9.9 nM | CLint scaled [8]: 170 mL/min/kg | Stability [9]: > 99%

O=C1CCC(N2C(=O)c3cccc(NCCOCCOCCOCCOCCC(=O)N4CCC(NC(=O)Nc5ccc(OC(F)(F)F)cc5)CC4)c3C2=O)C(=O)N1 (stereo not drawn)
IC50 [1]: 4.6 nM

O=C(COc1cccc2c1C(=O)N(C1CCC(=O)NC1=O)C2=O)NCCOCCOCCOCCCNC(=O)c1ccc(O[C@H]2CC[C@H](NC(=O)Nc3ccc(OC(F)(F)F)cc3)CC2)cc1 (stereo partly drawn)
degraded at 24 h [5]: ~100% | DC50 [10]: > 1000 nM

O=C1CCC(N2C(=O)c3ccc(N4CCN(CC5CCN(C(=O)CCCCCCCCC(=O)N6CCC(NC(=O)Nc7ccc(OC(F)(F)F)cc7)CC6)CC5)CC4)cc3C2=O)C(=O)N1 (stereo not drawn)
half-life [11]: 5.8 h | Tmax [12]: 0.33 h | AUC(0-inf) [13]: 61000 ng·h/mL | IC50 [1]: 4.6 nM | Cmax [14]: 3000 ng/mL | MRT inf [15]: 4 h

O=C(Nc1ccc(OC(F)(F)F)cc1)N[C@H]1CC[C@H](Oc2ccc(C(=O)O)cc2)CC1
inhibition [4]: inactive | inhibition [6]: inactive | inhibition (HEK293T [7]): inactive

O=C1CCC(N2Cc3ccc(N4CCN(CC5CCN(C(=O)CCCCCCCCNC(=O)c6ccc(O[C@H]7CC[C@H](NC(=O)Nc8ccc(OC(F)(F)F)cc8)CC7)cc6)CC5)CC4)cc3C2=O)C(=O)N1 (stereo partly drawn)
half-life [11]: 7.1 h | Tmax [12]: 0.33 h | AUC(0-inf) [13]: 31000 ng·h/mL | IC50 [1]: 4.8 nM | Cmax [14]: 3500 ng/mL | MRT inf [15]: 9.3 h | viability at 1 µM (HepG2): 7%

Cc1ncsc1-c1ccc(CNC(=O)[C@@H]2C[C@@H](O)CN2C(=O)[C@@H](NC(=O)CCOCCOCCOCCOCCC(=O)N2CCC(NC(=O)Nc3ccc(OC(F)(F)F)cc3)CC2)C(C)(C)C)cc1
IC50 [1]: 10 nM

O=C1CCC(N2C(=O)c3ccc(N4CCN(CC5CCN(C(=O)CCCCCCCCNC(=O)c6ccc(O[C@H]7CC[C@H](NC(=O)Nc8ccc(OC(F)(F)F)cc8)CC7)cc6)CC5)CC4)cc3C2=O)C(=O)N1 (stereo partly drawn)
half-life [2]: > 2 h | inhibition (HEK293T [16]): Active | inhibition [17]: Active | half-life [3]: > 24 h | Activity (HEK-293T [18]): Active | half-life [11]: 12 h | inhibition [19]: Active | Activity [20]: Active | Tmax [12]: 6.7 h | AUC(0-inf) [13]: 58000 ng·h/mL | IC50 [1]: 210 nM | Activity [21]: Active | Activity (HEK-293T [22]): Active | Cmax [14]: 2800 ng/mL | MRT inf [15]: 17 h | viability at 1 µM (HepG2): -38% | CLint scaled [8]: 43 mL/min/kg | Stability [9]: > 99%

O=C1CCC(N2C(=O)c3cccc(N4CCN(C(=O)CCCCCCCCNC(=O)c5ccc(O[C@H]6CC[C@H](NC(=O)Nc7ccc(OC(F)(F)F)cc7)CC6)cc5)CC4)c3C2=O)C(=O)N1 (stereo partly drawn)
IC50 [1]: 0.9 nM | viability at 1 µM (HepG2): -47%

From ChEMBL document CHEMBL6071207, “In Vivo-Active Soluble Epoxide Hydrolase-Targeting PROTACs with Improved Potency and Stability” (ACS Med Chem Lett, 2024)
